pIC50: −log10 of the molar value.

The target in this assay is T1, Recombinant human EP300 containing the bromodomain (EP300-BD (1040-1161)) (Homo sapiens, UniProt Q09472).
T1 construct: Recombinant human EP300 bromodomain (EP300-BD (1040-1161)); made in house; host or cells: E. coli BL21-CodonPlus (DE3), modified pET vector
T1 sequence (Q09472 1040-1161): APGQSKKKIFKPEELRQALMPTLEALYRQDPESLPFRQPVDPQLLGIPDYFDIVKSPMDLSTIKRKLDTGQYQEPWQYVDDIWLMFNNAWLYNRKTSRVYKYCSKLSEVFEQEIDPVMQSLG
Kind of assay: EP300 Alphascreen binding assay. An outline of the steps: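 Displacement of a biotinylated acetyl-K56 histone H3 peptide from the N-His bromodomain construct (1040-1161) measured by AlphaScreen proximity, beads at 7.5 μg/ml final, read 60 min after addition. Protein, peptide and compound first incubated 1 h at room temperature, pH 7.5 HEPES buffer; IC50 by four-parameter logistic fit.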
In general terms: Bead proximity is the source of the signal in Alpha formats.
The term pIC50 denotes the IC50 on a negative log10 scale, so that one unit is a factor of ten. In the case of `Cc1noc(C)c1-c1cnc2c(c1)c(-c1ccc(C(=O)O)cc1Cl)cn2C(c1ccccn1)C1CCCC1` (stereo not drawn) [P-0027, 3-chloro-4-(1-(cyclopentyl(pyridin-2-yl)methyl)-5-(3,5-dimethylisoxazol-4-yl)-1H-pyrrolo[2,3-b]pyridin-3-yl)benzoic acid], the pIC50 is 6.00 to 10.00.
`Cc1cc(-c2cn(C(c3ccccn3)C3CCCC3)c3ncc(-c4c(C)noc4C)cc23)ccc1C(=O)O` (stereo not drawn) [P-0028, 4-(1-(cyclopentyl(pyridin-2-yl)methyl)-5-(3,5-dimethylisoxazol-4-yl)-1H-pyrrolo[2,3-b]pyridin-3-yl)-2-methylbenzoic acid]: the pIC50 was 6.00 to 10.00.
Regarding `Cc1noc(C)c1-c1cnc2c(c1)c(-c1ccc(C(=O)O)c(C(F)(F)F)c1)cn2C(c1ccccn1)C1CCCC1` (stereo not drawn) [P-0029, 4-(1-(cyclopentyl(pyridin-2-yl)methyl)-5-(3,5-dimethylisoxazol-4-yl)-1H-pyrrolo[2,3-b]pyridin-3-yl)-2-(trifluoromethyl)benzoic acid], the pIC50 was 6.00 to 10.00.
In the case of `Cc1noc(C)c1-c1cnc2c(c1)c(-c1ccc(C(=O)O)c(O)c1)cn2C(c1ccccn1)C1CCCC1` (stereo not drawn) [P-0030, 4-(1-(cyclopentyl(pyridin-2-yl)methyl)-5-(3,5-dimethylisoxazol-4-yl)-1H-pyrrolo[2,3-b]pyridin-3-yl)-2-hydroxybenzoic acid] it was 5.10 to 6.00.
The result for `Cc1noc(C)c1-c1cnc2c(c1)c(-c1ccc(CC(=O)O)cc1)cn2C(c1ccccn1)C1CCCC1` (stereo not drawn) [P-0031, 2-(4-(1-(cyclopentyl(pyridin-2-yl)methyl)-5-(3,5-dimethylisoxazol-4-yl)-1H-pyrrolo[2,3-b]pyridin-3-yl)phenyl)acetic acid] reads 6.00 to 10.00.
In the case of `Cc1noc(C)c1-c1cnc2c(c1)c(-c1ccc(C(C)(C)C(=O)O)cc1)cn2C(c1ccccn1)C1CCCC1` (stereo not drawn) [P-0032, 2-(4-(1-(cyclopentyl(pyridin-2-yl)methyl)-5-(3,5-dimethylisoxazol-4-yl)-1H-pyrrolo[2,3-b]pyridin-3-yl)phenyl)-2-methylpropanoic acid] it was 6.00 to 10.00.
Turning to `Cc1noc(C)c1-c1cnc2c(c1)c(-c1ccc(C3(C(=O)O)CC3)cc1)cn2C(c1ccccn1)C1CCCC1` (stereo not drawn) [P-0033, 1-(4-(1-(cyclopentyl(pyridin-2-yl)methyl)-5-(3,5-dimethylisoxazol-4-yl)-1H-pyrrolo[2,3-b]pyridin-3-yl)phenyl)cyclopropane-1-carboxylic acid], the pIC50 is 6.00 to 10.00.
As to `Cc1noc(C)c1-c1cnc2c(c1)c(-c1ccc(C(F)(F)C(=O)O)cc1)cn2C(c1ccccn1)C1CCCC1` (stereo not drawn) [P-0034, 2-(4-(1-(cyclopentyl(pyridin-2-yl)methyl)-5-(3,5-dimethylisoxazol-4-yl)-1H-pyrrolo[2,3-b]pyridin-3-yl)phenyl)-2,2-difluoroacetic acid], the pIC50 was 6.00 to 10.00.
Consider `COc1ncccc1-n1cc(-c2ccc(C(=O)O)cc2OC(F)(F)F)c2cc(-c3c(C)noc3C)cnc21` [P-0316, 4-(5-(3,5-dimethylisoxazol-4-yl)-1-(2-methoxypyridin-3-yl)-1H-pyrrolo[2,3-b]pyridin-3-yl)-3-(trifluoromethoxy)benzoic acid], for which the pIC50 was 6.00 to 10.00.
In the case of `Cc1ncccc1-n1cc(-c2ccc(C(=O)O)cc2OC(F)(F)F)c2cc(-c3c(C)noc3C)cnc21` [P-0317, 4-(5-(3,5-dimethylisoxazol-4-yl)-1-(2-methylpyridin-3-yl)-1H-pyrrolo[2,3-b]pyridin-3-yl)-3-(trifluoromethoxy)benzoic acid] it was 6.00 to 10.00.
Consider `Cc1noc(C)c1-c1cnc2c(c1)c(-c1ccc(C(=O)O)cc1OC(F)(F)F)cn2-c1cnn(C)c1` [P-0318, 4-(5-(3,5-dimethylisoxazol-4-yl)-1-(1-methyl-1H-pyrazol-4-yl)-1H-pyrrolo[2,3-b]pyridin-3-yl)-3-(trifluoromethoxy)benzoic acid], for which the pIC50 is 6.00 to 10.00.
In the case of `Cc1noc(C)c1-c1cnc2c(c1)c(-c1ccc(C(=O)O)cc1OC(F)(F)F)cn2-c1cncnc1` [P-0319, 4-(5-(3,5-dimethylisoxazol-4-yl)-1-(pyrimidin-5-yl)-1H-pyrrolo[2,3-b]pyridin-3-yl)-3-(trifluoromethoxy)benzoic acid] it was 6.00 to 10.00.

The values above are taken from patent US11446287B2, “Compounds and methods for EP300 or CBP modulation and indications therefor” (Opna Immuno-Oncology SA, priority 2019, dated 2022).
